# Tests used:
# [1] = in vivo; conditions: rat
# [2] = tested on: Granuloma pouch; assay: "Granuloma pouch" test (Selye), antiinflammatory activity in the rat; conditions: 0.06 LD50, N = 10; for Exudate volume (ml), x- ± s.e.: controls 13.2 ± 2.19
# [3] = tested on: Freund's adjuvant arthritis; assay: Freund's adjuvant arthritis test in rats (Perper's design); conditions: 0.04 LD50, N = 10; for Δ Volume (ml) (not injected paw; opposite site), x- ± s.e.: arthritic controls 1.68 ± 0.14; for ΔVolume (ml) (injected paw), x- ± s.e.: arthritic controls 3.21 ± 0.27
# [4] = 80 mg/Kg/os daily, n.s. = not significant
smiles,measurement,setting,value
CC(=O)Oc1ccccc1C(=O)O [Acetylsalicylic acid],LD50,[1]; ip,500 mg/kg
same,LD50,[1]; po,1500 mg/kg
CCCCC1C(=O)N(c2ccccc2)N(c2ccccc2)C1=O [Phenylbutazone],"Pouch wall Fresh weight, % inhib.",[2]; 80 mg/Kg/os daily,27%
same,"Pouch wall Fresh weight (g), x- ± s.e.","[2]; 80 mg/Kg/os daily, controls 5.10 ± 0.53",3.72 ± 0.28 g
same,"Exudate volume (ml), x- ± s.e.",[2]; 80 mg/Kg/os daily,9.70 ± 1.65 mL
same,"Exudate volume, % inhib.",[2]; [4],28%
same,"Pouch wall Fresh weight, % inhib.",[2]; [4],20%
same,"Δ Volume (not injected paw; opposite site), % inhib.",[3]; 50 mg/Kg/os daily,0%
same,"ΔVolume (injected paw), % inhib.",[3]; 50 mg/Kg/os daily,8%
same,"Δ Volume (ml) (not injected paw; opposite site), x- ± s.e.",[3]; 50 mg/Kg/os daily,1.74 ± 0.13 mL
same,"ΔVolume (ml) (injected paw), x- ± s.e.",[3]; 50 mg/Kg/os daily,2.97 ± 0.14 mL
"C[S+](C)CCOCC[S+](C)C [Z.964, 2,2'-bis(dimethylsulfoniumethyl)ether diiodide]",LD50,[1]; ip,1150 mg/kg
same,LD50,[1]; po,> 5000 mg/kg
same,"Pouch wall Fresh weight, % inhib.",[2]; 300 mg/Kg/os daily,48%
same,"Exudate volume, % inhib.","[2]; 300 mg/Kg/os daily, * P<0.05",53%
same,"Pouch wall Fresh weight, % inhib.","[2]; 300 mg/Kg/os daily, * P<0.05",38%
same,"Pouch wall Fresh weight (g), x- ± s.e.","[2]; 300 mg/Kg/os daily, controls 5.10 ± 0.53",2.70 ± 0.27 g
same,"Exudate volume (ml), x- ± s.e.",[2]; 300 mg/Kg/os daily,6.15 ± 0.69 mL
same,"Pouch wall Fresh weight (g), x- ± s.e.","[2]; 300 mg/Kg/os daily, controls 1126.7, s.e. 156.7",708.9 ± 79.0
same,"Δ Volume (not injected paw; opposite site), % inhib.",[3]; 200 mg/Kg/os daily,63%
same,"ΔVolume (injected paw), % inhib.",[3]; 200 mg/Kg/os daily,32%
same,"Δ Volume (ml) (not injected paw; opposite site), x- ± s.e.",[3]; 200 mg/Kg/os daily,0.61 ± 0.13 mL
same,"ΔVolume (ml) (injected paw), x- ± s.e.",[3]; 200 mg/Kg/os daily,2.17 ± 0.24 mL
